Source: patent publication US20050124554A1, “Spermidine derivatives for the treatment of chronic neurodegenerative diseases” (priority 2002, published 2005)

System: organotypic hippocampal slice cultures (CA1 or CA3 pyramidal cell layer)
Experiment: Excitotoxic injury by glutamate receptor agonists, cell death by PI fluorescence
Assay type: cell-based, Wistar rat
Settings: for protection: 300 μM
Experimental: Organotypic hippocampal slice cultures were prepared according to established methods (Pringle et al. (1997), Brain Res., 755, 36-46). In brief, Wistar rat pups (8-11 days old) were decapitated and the hippocampus rapidly dissected into ice-cold Gey's balanced salt solution (Gibco Life Technologies, Paisley, UK) supplemented with 4.5 mg ml^−1 glucose. Slices were separated and plated onto Millicell CM culture inserts (4 per well) and maintained at 37° C. and 5% CO2 for 14 days. Maintenance medium consisted of 25% heat-inactivated horse serum, 25% Hank's balanced salt solution (HBSS) and 50% minimum essential medium with added Earle's salts MM, ICN Biomedicals, Basingstoke, UK) supplemented with 1 mM glutamine and 4.5 mg ml^−1 glucose. Medium was changed every 3-4 days.
Excitotoxic injury was performed as previously described (Pringle et al. (1997), Brain Res., 755, 36-46) with L-Arg3,4 present pre-, during, and post-injury fin treated cultures. Cultures were transferred to SFM+PI with or without 300 μM L-Arg3,4 and allowed to equilibrate for 30 min prior to imaging. […] The medium was then exchanged for SFM+PI plus a glutamate receptor agonist (either 10 mM glutamate, 10 μM NMDA, 10 μM AMPA, or 10 μM kainate) for 3 h. After exposure, the media was again exchanged for SFM+PI containing 300 μM L-Arg3,4. Cultures were then returned to the incubator until they were assessed for cell death in the indicated region of the pyramidal cell layer 24 h post exposure.
Neuronal damage was assessed as described previously (Pringle et al. (1996), Stroke, 27, 2124-2130; Pringle et al. (1997), Brain Res., 755, 36-46). Light transmission images were captured prior to the induction of injury, and PI fluorescence images recorded at the end of the 24 h post-injury recovery period. All images were captured on an inverted Leica DM-IRBE epifluorescence microscope (Milton Keynes, UK) fitted with a 100 W Hg lamp and standard rhodamine optics (excitation 510-560 nm; dichroic mirror […]; emission>590 nm). Images were acquired with a 5×NA 0.12 lens and a cooled Hamamatsu digital camera and digitised at 12 bit resolution for analysis in OpenLab 2.1 (Improvision, Coventry, UK) running on a Macintosh G4/400. The area of the CA1 or CA3 cell layer was determined from the transmission image, and the area of PI fluorescence in that cell layers was measured using the density slice function within OpenLab. Neuronal damage was expressed as a percentage of the area in which PI fluorescence was detected above threshold within a cell layer divided by the total area of that cell layer. Protection was calculated as the difference between the damage for a given well and the average damage in untreated controls divided by the average damage in untreated controls. Groups were compared against corresponding control groups using the two tailed Student's t-test with significance indicated as * for P<0.05, and ** for P<0.01. Data is presented as mean±s.e.mean.

For `N=C(N)NCCCC(N)C(=O)NCCCNCCCCN` [L-Arg3,4, L-arginyl-3,4-spermidine], the “cell death (damage) in CA1” value (10 μM AMPA 3 h, 300 μM compound) was 19±4%, the protection (10 μM AMPA, CA1) was 53% and the “cell death (damage) in CA1” value (10 μM NMDA 3 h, 300 μM compound) was 16±2%. The protection (10 μM NMDA, CA1) was 38%, the “cell death (damage) in CA3” value (10 μM kainate 3 h, 300 μM compound) was 11±4% and the protection (10 μM kainate, CA3) was 61%. The “cell death (damage) in CA1” value (10 mM Glut 3 h, 300 μM compound pre-, during, post-injury) was 13±3% and the protection (10 mM Glut, CA1) was 41%.
